Consider 3 molecules from PMC10377091 (Brain Sciences, 2023).

Where two headings read alike, the source gives them in different places.

One series deals with hiPS-BCECs. Put plainly: Cytotoxicity, CellTiter-Glo 2.0 Cell Viability Assay. The conditions noted are these: 1% SDS (positive control), 4 h incubation, luminescence; mean ± SEM. Here is the method: Cytotoxicity of phoenixin-14 against hiPS-BCECs was evaluated for three concentrations (1, 10, and 100 nMol) after 4 h incubation with untreated (negative control) and 1% Sodium Dodecyl Sulfate (SDS, Carl Roth, Karlsruhe, Germany)-treated (positive control) hiPS-BCECs as controls. After treatment, a CellTiter-Glo® 2.0 Cell Viability Assay (Promega, Mannheim, Germany) was performed according to the manufacturer’s instructions. Luminescence was measured with an Infinite M200 fluorescence reader (Tecan Group, Männedorf, Switzerland).
Cytotoxicity studies were performed in triplicate and three independent biological replicates. Transport studies were performed in duplicate and repeated three times. […] When feasible based on the number of values, data were tested for normality using the Kolmogorov–Smirnov test; otherwise, they were assumed to be non-normally distributed. Results from the toxicity studies were analyzed using Kruskal–Wallis test and significance values were adjusted according to Bonferroni correction regarding multiple testing. To compare the results of the transport studies, an unpaired t-test was applied. Data are presented as mean ± SEM. The level of significance was defined as p < 0.05 (*).

In series [1] the test system is hiPSC-BCECs (brain capillary-like endothelial cells derived from human induced-pluripotent stem cells). On the set-up: method as in PMID 28344002. Conditions: control substances, previously published experiments in the hiPSC-based BBB model; mean ± SEM; cited from earlier work.
Details of series [2]: method as in PMID 34575559. Conditions: in vivo in mice; cited from earlier work.
The test system of series [3] is hiPSC-BCECs (brain capillary-like endothelial cells derived from human induced-pluripotent stem cells). Nature of the series: Transport assay across hiPSC-derived BBB mono-culture model (hiPS-BCEC). Conditions: for clearance value: mean ± SEM; for permeability coefficient (PC): apical to basolateral, 4 h, 37 °C, ELISA. The series is classed as in vitro ADME. As to the method: Human induced-pluripotent stem cells (hiPSC; IMR90-4, WiCell Research Institute, Madison, WI, USA) were cultured in mTeSRTM1 medium (StemCell Technologies, Vancouver, BC, Canada). The hiPSC-derived brain capillary-like endothelial cell (hiPS-BCEC) BBB model was built as previously described. In brief, using Accutase® solution (Sigma-Aldrich, Saint Louis, MO, USA), hiPSCs were dissociated into single cells and seeded in mTeSRTM1 medium (StemCell Technologies Inc.) including […]-27632 dihydrochloride (Tocris, Bristol, UK) on Matrigel® Growth Factor Reduced (GFR) Basement Membrane Matrix, Phenol Red-free (Corning, Corning, NY, USA) coated 6-well plates at a density of 7.5 × 103 hiPSC/cm^2. […] For the next two days, cells were treated with EC++ medium, consisting of human endothelial-[…], Thermo Fisher Scientific) supplemented with 200 × diluted serum-free B-27TM supplement (Thermo Fisher Scientific), 20 ng/mL hbFGF (PeproTech, Cranbury, NJ, USA), and 10 μM all-trans RA (Sigma-Aldrich). No medium change occurred on day 7. Using Accutase®, cells were seeded in EC++ medium at a density of 1 × 106 hiPSC/cm^2 onto 24-well ThinCert® cell culture inserts, with a pore size of 0.4 μm (Greiner BioOne, Frickenhausen, Germany), coated with 400 μg/mL collagen IV (Sigma-Aldrich) and supplemented with 100 μg/mL fibronectin (Thermo Fisher Scientific). Cells were cultured in EC++ medium for 24 h, followed by treatment with EC medium ([…] hbFGF and RA) for another 24 h, yielding purified hiPS-BCECs. Transport assays were performed in cell culture inserts (24-well format) on an orbital shaker (Edmund Buhler GmbH, Bodelshausen, Germany) at 100 rpm, 37 °C, 95% humidity, and 5% CO2. […] Stock solutions of commercially purchased phoenixin-14 (079-01, Phoenix Pharmaceuticals, Inc., Karlsruhe, Germany,) were diluted with EC medium to the desired concentrations (1 nMol or 10 nMol). In total, 200 μL of the final concentrations of phoenixin-14 were applied to the apical side of the BBB model. The basolateral side was supplied with 800 μL of EC medium. The transport was evaluated with a total incubation time of 4 h. Half-hourly, the basolateral medium was collected and replaced with fresh EC medium. As a control, the substances were incubated on empty collagen IV-/fibronectin-coated inserts to exclude major phoenixin-14 adsorption on the membrane. […] The concentration of phoenixin-14 in the apical and basolateral compartment was measured using a commercially purchased ELISA Kit (EK-079-01, Phoenix Pharmaceuticals). The intra-assay variability was 9.7%. The sensitivity for phoenixin was 0.07 ng/mL, while the linear detection ranged from 0.36 to 3.26 ng/mL (Phoenix Pharmaceuticals). […] Data are presented as mean ± SEM.
On the technique in general: In an ELISA, binding on a coated surface is turned into a signal by an enzyme label.

Regarding `CCCCCCCCCCCCOS(=O)(=O)[O-].[Na+]` [SDS, Sodium Dodecyl Sulfate], in the series on hiPS-BCECs, the “cell viability in comparison to untreated hiPS-BCECs” value is listed as 0.37 ± 0.02%.
Turning to `Cn1c(=O)c2c(ncn2C)n(C)c1=O` [caffeine], the “permeability coefficient (PC)” value in series [1] is on record as 51.06 ± 9.90 µm/min. Also, the clearance value in series [2] was 1.111e-05 mL/min.
H-DVQPPGLKVWSDPF-NH2 [phoenixin-14]: the “passage across the hiPSC-derived BBB model” value in series [3] (1 and 10 nMol, phoenixin-14 alone, in vitro) is on record as “did not cross”. Also, the clearance value is 6.83e-07 ± 1.39e-07 mL/min in series [3] (1 nMol phoenixin-14, hiPS-BCEC mono-culture, resulting from PC) and 1.779e-06 ± 8.17e-07 mL/min in series [3] (10 nMol phoenixin-14, hiPS-BCEC mono-culture, based on PC). The “permeability coefficient (PC)” value in series [3] (10 nMol phoenixin-14, hiPS-BCEC mono-culture, experiment 1 of 3) worked out at 0.059 µm/min; in series [3] (10 nMol phoenixin-14, hiPS-BCEC mono-culture, experiment 2 of 3) it was 0.056 µm/min; in series [3] (10 nMol phoenixin-14, hiPS-BCEC mono-culture, experiment 3 of 3), 0.019 µm/min.
